Source: patent publication US9987200B2, “Activated micro-bubble based root canal disinfection” (SyACT, LLP, priority 2014, dated 2018)
One block for each compound: values may come before it.

Tests used:
[1] = test system: Enterococcus faecalis biofilms; experiment: Confocal laser scanning microscopy of biofilms subjected to different treatments (FIG. 15); format: cell-based; details: one week old E. faecalis biofilms; live green, dead red; light 660 nm
Description: FIG. 15 contains in the first two columns, images showing the three-dimensional confocal laser scanning microscopy reconstruction of the Enterococcus faecalis biofilms subjected to different treatments (60×).
The first two columns of FIG. 15 contain images which show one week old bacterial biofilms of Enterococcus faecalis before and after treatment for the different groups. Each of the six images in the first two columns show active and dead bacteria, with the active bacteria being shown in green and the dead bacteria being shown in red. The two left-hand columns of FIG. 15 contains, images showing the three-dimensional confocal laser scanning microscopy reconstruction of the Enterococcus faecalis biofilms subjected to different treatments (60×). […] However, there active bacteria remain.

[2] = test system: bacterial biofilms; experiment: Laser confocal microscopy of treated root canals, live/dead bacteria (FIGS. 20-22); format: cell-based; details: then sonic and light activation of the micro-bubble solution
Description: FIGS. 21-22 show laser confocal microscopy images showing bacterial biofilms (and dead cells as red and viable cells are green).
In these photographs, active bacteria are shown in green and dead bacteria as shown in red. FIG. 20 contains photomicrographs of a control tooth.

[3] = Singlet oxygen release measured with 1,3-diphenylisobenzofuran (DPBF); format: physicochemical; details: with sonic activation compared with no sonic activation (FIG. 11)
Experimental: As noted above, when the light reaches the photosensitive compound, the photosensitive compound releases energy to convert the oxygen molecules to singlet oxygen. […] The singlet oxygen release was measured using 1, 3-diphenylisobenzofuran (DPBF). DPBF is a chemical used to study the degree of release of singlet oxygen; it is not actually part of the micro-bubble solution or the photosensitizing solution. As is known, DPBF undergoes bleaching with singlet oxygen and this can be calorimetrically quantified. […]
FIG. 11 contains graphs showing singlet oxygen yield of methylene blue (on the left hand graph) and rose bengal (on the right hand graph) both with sonic activation (square data points) and without sonic activation (diamond data points). […] The substantial fall off in absorbance in the sonically activated samples (as compared to the non-activated samples) for both the methylene blue and the rose bengal show substantial increase in micro-bubble activity within the first few seconds of activation of the micro-bubble solution.

[4] = cited from earlier work

Compound: OCl [sodium hypochlorite]
Active (live) bacteria remaining in biofilm [1]: kills (eliminates) nearly all of the active bacteria

Fall off in absorbance (singlet oxygen yield) [3]: falls off much more rapidly
Compound: CN(C)c1ccc2nc3ccc(=[N+](C)C)cc-3sc2c1 [methylene blue]
Active bacteria remaining in root canal ([2]; MB in a water carrier): substantially all of the active bacteria have been eliminated
Active bacteria remaining in root canal ([2]; MB in polyethylene glycol, alcohol and water carrier solution): substantially all of the active bacteria have been eliminated

Compound: Triton X-100
Solubility ([4]; at 25° C. in water, benzene, toluene, xylene, trichloroethylene, ethylene glycol, ethyl ether, ethanol, isopropanol, ethylene dichloride): soluble in all proportions
Viscosity (Brookfield) ([4]; at 25° C.): 240 cps

Fall off in absorbance (singlet oxygen yield) [3]: fell off much more quickly
Compound: O=C([O-])c1c(Cl)c(Cl)c(Cl)c(Cl)c1-c1c2cc(I)c(=O)c(I)c-2oc2c(I)c([O-])c(I)cc12.[Na+].[Na+] [rose bengal]
